In patent US6559133B2, “Use of flavone 8-acetic acid in vascular and cardiovascular interventions and acute coronary syndromes” (priority 2000, dated 2003):

What was measured:
[1] = tested on: solid tumors in the mouse; conditions: mice; cited from earlier work
[2] = tested on: human platelet-rich plasma; conditions: cited from earlier work
[3] = tested on: deeply injured porcine carotid artery; assay: Platelet and fibrin(ogen) deposition and mural thrombus after deep arterial injury by balloon angioplasty; type: in vivo, pig
Description: (§1) Twenty normal pigs of Babcock 4-way cross stock (a mixture of Landrace, Yorkshire, Hampshire, and Durock breeds) approximately 4 months old with a mean weight of 40±1 kg (approximately 1 m^2 body surface area) (P. L. Altman & D. S. Dittmer, “Metabolism” in Biological Handbooks (Federation of American Societies for Experimental Biology, Bethesda, Md., 1968), pp. 346-348), were obtained from local farmers. […] Loading dose and maintenance infusion were calculated based on preliminary pharmacokinetic experiments in pigs.
The model of deep arterial injury in the porcine carotid artery has been described in detail previously (P. M. Steele et al., “Balloon Angioplasty: Natural History of the Pathophysiologic Response to Injury in a Pig Model,” Cir. Res. 57: 105-112 (1985); M. Heras et al., “Hirudin, Heparin, and Placebo During Deep Arterial Injury in the Pig. The in Vivo Role of Thrombin in Platelet-Mediated Thrombosis,” Circulation 82: 1476-1484 (1990); J. Y. T. Lam et al., “Is Vasospasm Related to Platelet Deposition? Relationship in a Porcine Preparation of Arterial Injury in Vivo,” Circulation 75: 243-248 (1987)). Autologous platelets were labeled with […] of ^111Indium-tropolone and reinjected together with […] of ^125Iodine-labeled porcine fibrinogen on the day prior to the procedure M. Heras et al., “Hirudin, Heparin, and Placebo During Deep Arterial Injury in the Pig. The in Vivo Role of Thrombin in Platelet-Mediated Thrombosis,” Circulation 82: 1476-1484 (1990); J. Y. T. Lam et al., “Is Vasospasm Related to Platelet Deposition? Relationship in a Porcine Preparation of Arterial Injury in Vivo,” Circulation 75: 243-248 (1987); J. Mruk et al., “Does Anti-Thrombotic Therapy Influence Residual Thrombus After Thrombolysis of Platelet-Rich Thrombus?,” Circulation 93: 792-799 (1996)). On the day of surgery, the pigs were sedated with 1 g intramuscular ketamine (Ketaset, Bristol Laboratories, Syracuse, N.Y.), intubated and mechanically ventilated with room air (Harvard respirator, Harvard Apparatus, South Natick, Mass.). Anesthesia was maintained with a continuous infusion of etomidate (Abbott Laboratories, North Chicago, Ill.) 40 mg/l, fentanyl (Elkins-Sinn, Inc., Cherry Hill, N.J.) 10 mg/l, and ketamine 1,000 mg/l, at about 5 ml/minute. The ECG and intra-arterial pressure were continuously monitored throughout the procedure.
The left femoral vein and artery and the right femoral vein were dissected. A 9 F sheath was placed in the left femoral artery, and 14 gauge angiocaths were inserted in the left and right femoral veins. […] All the lines for blood sampling were continuously flushed with 0.9% saline. […]

[4] = FAA pharmacokinetics and plasma levels in pigs (HPLC); type: in vivo, pig
Description: as §1
(§2) All blood samples were collected with the 2-syringe technique (0.13 M trisodium citrate as anticoagulant; anticoagulant:blood=1:10). […] Platelet count, hematocrit, aPTT, and fibrinogen were determined using standard laboratory methods (Mayo Clinic, Clinical Laboratories). […] Assays were performed as a single batch. The method of determination of FAA in plasma was that of L. Malspeis (personal communication). Briefly, plasma (0.25-0.50 ml) was diluted to 1 ml with 0.5 ml of 0.5 M sodium acetate (pH 3.0) and normal saline. After addition of diethyl ether (4 ml) tubes were shaken on a mechanical shaker for 15 minutes. Following low speed centrifugation, the ether phase was evaporated to dryness under a stream of nitrogen and the residue dissolved in mobile solvent prior to HPLC analysis. Samples were analyzed by reversed-phase HPLC on an IBM C18 (10 micron) column with a mobile solvent of methanol/water mixture. Detection was by UV absorbance at 254 nm. Standard curves were prepared by adding known amounts of FAA to blood blank plasma and analyzing as described above.
The intravenous bolus and continuous infusion doses to maintain a plasma concentration of 500 μg/ml calculated from these values, were 5.5 gm/m^2 and 140 mg/min/m^2, respectively.

[5] = tested on: porcine common carotid arteries; assay: Vasoconstriction immediately distal to the dilatation site, from carotid angiograms; type: in vivo, pig; conditions: mean±SEM; p<0.001 vs placebo
Description: An 8 mm×3 cm polyethylene angioplasty catheter (Blue Max, Medi-tech, Watertown, Mass.) was advanced under fluoroscopic guidance to the left and then to the right common carotid arteries for arterial dilatation. Angioplasty was performed 30 minutes after starting treatment, between the first and third cervical vertebrae, using a standardized procedure (5 inflations of 30 seconds duration at 7 atmospheres, with 60 seconds between inflations). Carotid angiography was performed by injecting 6 ml of ionic contrast material (Renografin 76, Squibb, Princeton, N.J.) just prior to carotid dilatation, using a catheter (8 F) with a metal ring of known dimension (Cordis Corporation, Miami, Fla.). Spot films were also taken during balloon dilatation. […]
The severity of localized vasoconstriction was determined immediately distal to the dilatation site from angiograms of the common carotid arteries obtained before and after the dilatation procedure. Computer-assisted planimetry was used to measure the mean maximal narrowing in lumen diameter before and after the procedure, expressed as a percentage of the respective arterial dimension before dilatation (J. Y. T. Lam et al., “Is Vasospasm Related to Platelet Deposition? Relationship in a Porcine Preparation of Arterial Injury in Vivo,” Circulation 75: 243-248 (1987)).

[6] = Laboratory tests: aPTT and ear bleeding time; type: in vivo, pig
Description: The left femoral vein and artery and the right femoral vein were dissected. A 9 F sheath was placed in the left femoral artery, and 14 gauge angiocaths were inserted in the left and right femoral veins. […] All the lines for blood sampling were continuously flushed with 0.9% saline.
as §2

O=C(O)Cc1cccc2c(=O)cc(-c3ccccc3)oc12 [FAA, flavone-8-acetic acid]
Implantation of solid tumors [1]: inhibits implantation of solid tumors in mice | Ristocetin-induced platelet aggregation (vWF-GP Ibα-dependent) ([2]; FAA administered to patients with cancer): inhibited | Aggregation induced by ADP, collagen, arachidonic acid and adrenalin ([2]; ex vivo and in vitro, human platelet-rich plasma): not inhibited | Plasma ristocetin cofactor activity ([2]; human): unchanged | Fibrin(ogen) deposition ([3]; deeply injured segments, mean±SEM, p=0.08 vs placebo): 40±8 ×10^12 molecules/cm^2 | Incidence of very small mural thrombi, treated pigs ([3]; per animal, p=0.005, large thrombi in all placebo pigs): 40% | Incidence of very small thrombi, deeply injured segments ([3]; per deeply injured segment, placebo 85% large thrombi): 30% | Platelet deposition in deeply injured segments ([3]; pigs, FAA bolus 5.5 g/m^2 then infusion 0.14 g/m^2/minute, mean±SEM, p=0.001 vs placebo): 13±3 ×10^6/cm^2 | concentration at 30 min ([4]; Babcock 4-way cross (Landrace, Yorkshire, Hampshire, Durock), pig, plasma, intravenous, 30 minutes after starting bolus 5.5 g/m^2 plus infusion 0.14 g/m^2/minute): 515 ± 23 µg/mL | Plasma level of FAA at the end of the procedure ([4]; bolus 5.5 g/m^2 plus infusion 0.14 g/m^2/minute): 575 ± 36 µg/mL | half-life ([4]; pig, plasma, two animals, intravenous bolus 1 gm/m^2, one compartment open model): 27.9 min | Plasma clearance ([4]; two animals, intravenous bolus 1 gm/m^2, one compartment open model): 279 ml/min/m^2 | Vasoconstriction immediately distal to the area of dilatation [5]: 15±3% | Bleeding time after FAA in 4 of the animals ([6]; 4 of 5 animals, 210 seconds = 2 standard deviations above the mean laboratory value): more than 210 seconds | Bleeding time after FAA ([6]; 5 animals, 30 minutes after starting infusion, before FAA 157±29 seconds): 522 ± 123 s
